Bridge positions count the residues as written; N and C are the ends. Ends that are not written are not given here. Peptide text beside a SMILES is read from it.
Experiments:
Type in all cases: cell-based
[1] = molecular target: T1, FGFR1c and co-receptor beta-Klotho (KLB) (Homo sapiens, UniProt P11362+Q86Z14); experiment: Luciferase reporter gene assay (iLite FGF21 Assay Ready Cells), FGF21-like signaling; conditions: monovalent Fab versus bivalent antibody
T1 construct: host or cells: iLite FGF21 Assay Ready Cells (HEK293)
T1 sequence (Q86Z14 53-1044 limits assumed): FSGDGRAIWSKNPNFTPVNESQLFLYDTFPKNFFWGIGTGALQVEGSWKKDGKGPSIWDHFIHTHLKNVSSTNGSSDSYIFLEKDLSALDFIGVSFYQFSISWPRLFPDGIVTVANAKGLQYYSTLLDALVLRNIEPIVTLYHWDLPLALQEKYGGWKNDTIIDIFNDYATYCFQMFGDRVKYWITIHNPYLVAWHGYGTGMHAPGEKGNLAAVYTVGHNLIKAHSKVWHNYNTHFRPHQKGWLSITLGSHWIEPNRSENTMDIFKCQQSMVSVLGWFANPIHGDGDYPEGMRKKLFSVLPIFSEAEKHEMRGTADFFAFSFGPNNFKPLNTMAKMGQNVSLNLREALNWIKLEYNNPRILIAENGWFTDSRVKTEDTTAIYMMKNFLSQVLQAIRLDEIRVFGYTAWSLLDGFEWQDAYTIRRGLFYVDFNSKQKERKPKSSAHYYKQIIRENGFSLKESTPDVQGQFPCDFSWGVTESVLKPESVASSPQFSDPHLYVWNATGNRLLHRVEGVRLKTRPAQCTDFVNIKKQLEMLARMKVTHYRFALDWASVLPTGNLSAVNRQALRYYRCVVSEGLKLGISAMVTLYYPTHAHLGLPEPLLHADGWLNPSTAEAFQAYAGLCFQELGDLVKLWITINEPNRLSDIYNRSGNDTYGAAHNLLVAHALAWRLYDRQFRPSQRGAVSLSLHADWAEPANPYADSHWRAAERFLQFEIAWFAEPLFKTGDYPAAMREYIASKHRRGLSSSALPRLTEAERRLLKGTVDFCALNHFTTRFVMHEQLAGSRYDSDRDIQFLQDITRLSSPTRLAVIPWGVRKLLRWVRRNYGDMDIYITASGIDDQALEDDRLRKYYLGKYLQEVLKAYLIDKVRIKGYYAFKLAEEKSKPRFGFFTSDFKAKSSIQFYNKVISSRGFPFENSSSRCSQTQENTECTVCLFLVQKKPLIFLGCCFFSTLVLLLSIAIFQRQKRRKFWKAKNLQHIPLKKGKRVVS
T1 sequence (P11362 22-820 isoform P11362-2 limits assumed): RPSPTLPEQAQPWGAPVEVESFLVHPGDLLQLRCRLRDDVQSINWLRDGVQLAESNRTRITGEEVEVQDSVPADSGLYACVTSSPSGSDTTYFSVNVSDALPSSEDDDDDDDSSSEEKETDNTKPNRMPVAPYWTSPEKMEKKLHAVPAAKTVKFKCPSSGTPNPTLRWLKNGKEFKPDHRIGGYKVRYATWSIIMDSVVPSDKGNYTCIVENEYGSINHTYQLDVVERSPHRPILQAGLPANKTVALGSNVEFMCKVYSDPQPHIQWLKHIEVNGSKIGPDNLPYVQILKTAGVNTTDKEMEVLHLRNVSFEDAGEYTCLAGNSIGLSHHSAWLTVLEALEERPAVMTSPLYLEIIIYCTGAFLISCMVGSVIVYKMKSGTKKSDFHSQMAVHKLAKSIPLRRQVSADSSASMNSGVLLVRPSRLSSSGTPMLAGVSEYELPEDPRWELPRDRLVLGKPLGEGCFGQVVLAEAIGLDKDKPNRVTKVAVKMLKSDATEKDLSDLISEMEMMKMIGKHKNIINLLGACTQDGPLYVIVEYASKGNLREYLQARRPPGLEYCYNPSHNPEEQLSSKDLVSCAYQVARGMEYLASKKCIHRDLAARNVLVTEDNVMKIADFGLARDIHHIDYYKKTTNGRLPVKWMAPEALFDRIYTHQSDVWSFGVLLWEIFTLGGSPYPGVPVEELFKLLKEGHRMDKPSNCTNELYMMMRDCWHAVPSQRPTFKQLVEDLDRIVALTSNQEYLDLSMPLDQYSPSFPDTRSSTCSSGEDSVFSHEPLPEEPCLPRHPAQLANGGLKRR

human GLP-1 receptor = molecular target: T2, human GLP-1 receptor (Homo sapiens, UniProt P43220); experiment: HTRF cAMP assay in HEK-293 cells expressing human GLP-1 receptor; conditions: HEK-293 cells; read-out: HTRF cAMP EC50 Human GLP-1R
T2 construct: expressed in transfected cells; host or cells: PSC-HEK-293
T2 sequence (P43220 24-463): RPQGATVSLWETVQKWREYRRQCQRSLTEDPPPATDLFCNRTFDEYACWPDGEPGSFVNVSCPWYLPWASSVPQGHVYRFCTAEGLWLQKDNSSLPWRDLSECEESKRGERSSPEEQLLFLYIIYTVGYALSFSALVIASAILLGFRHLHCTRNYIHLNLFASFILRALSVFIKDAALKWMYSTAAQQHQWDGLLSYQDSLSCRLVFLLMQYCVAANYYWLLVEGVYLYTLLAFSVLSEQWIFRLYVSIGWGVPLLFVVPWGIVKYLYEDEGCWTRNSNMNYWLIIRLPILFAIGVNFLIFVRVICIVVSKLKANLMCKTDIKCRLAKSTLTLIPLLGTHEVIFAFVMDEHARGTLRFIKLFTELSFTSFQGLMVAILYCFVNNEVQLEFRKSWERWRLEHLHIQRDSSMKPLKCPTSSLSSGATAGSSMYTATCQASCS

[2] = molecular target: T3, human glucagon (GCG) receptor (Homo sapiens, UniProt P47871); experiment: HTRF cAMP assay in HEK-293 cells expressing human glucagon receptor; conditions: HEK-293 cells; read-out: HTRF cAMP EC50 Human GCGR
T3 construct: expressed in transfected cells; host or cells: PSC-HEK-293
T3 sequence (P47871 26-477): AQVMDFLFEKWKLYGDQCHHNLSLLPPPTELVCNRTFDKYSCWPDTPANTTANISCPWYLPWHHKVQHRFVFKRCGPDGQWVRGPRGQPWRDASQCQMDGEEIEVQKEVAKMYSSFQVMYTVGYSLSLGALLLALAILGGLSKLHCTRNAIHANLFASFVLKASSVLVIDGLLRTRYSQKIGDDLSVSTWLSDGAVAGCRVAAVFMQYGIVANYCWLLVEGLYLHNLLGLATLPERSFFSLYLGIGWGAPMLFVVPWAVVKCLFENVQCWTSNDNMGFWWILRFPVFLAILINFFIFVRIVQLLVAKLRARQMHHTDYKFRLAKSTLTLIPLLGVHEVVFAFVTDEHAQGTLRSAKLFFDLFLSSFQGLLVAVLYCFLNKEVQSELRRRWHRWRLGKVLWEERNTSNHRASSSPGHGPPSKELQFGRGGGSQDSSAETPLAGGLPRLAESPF

human GIP receptor = molecular target: T4, human GIP receptor (Homo sapiens, UniProt P48546); experiment: HTRF cAMP assay in HEK-293 cells expressing human GIP receptor; conditions: HEK-293 cells; read-out: HTRF cAMP EC50 Human GIPR
T4 construct: expressed in transfected cells; host or cells: PSC-HEK-293
T4 sequence (P48546 22-466): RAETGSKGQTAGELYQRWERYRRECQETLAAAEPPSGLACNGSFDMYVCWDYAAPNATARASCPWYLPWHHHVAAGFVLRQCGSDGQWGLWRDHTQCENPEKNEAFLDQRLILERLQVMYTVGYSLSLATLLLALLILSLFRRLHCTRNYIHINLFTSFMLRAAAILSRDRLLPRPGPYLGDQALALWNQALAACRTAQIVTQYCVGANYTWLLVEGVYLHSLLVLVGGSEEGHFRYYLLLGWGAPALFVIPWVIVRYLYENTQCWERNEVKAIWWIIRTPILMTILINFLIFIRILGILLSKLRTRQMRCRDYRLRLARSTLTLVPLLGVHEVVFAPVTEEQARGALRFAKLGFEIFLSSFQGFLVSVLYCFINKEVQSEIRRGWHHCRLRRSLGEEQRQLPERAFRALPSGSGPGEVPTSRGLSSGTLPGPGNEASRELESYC

| Compound | FGF21-like activity in Luciferase gene reporter assay (in words) [1] | EC50 (human GLP-1 receptor) [nM] | EC50 [2] [nM] | EC50 (human GIP receptor) [nM] |
| --- | --- | --- | --- | --- |
| 16H7-Fab: monovalent Fab fragment (antigen-binding fragment) of 16H7 [Ab 16H7-Fab, reference compound] | inactive | – | – | – |
| CC[C@H](C)[C@H](NC(=O)[C@H](Cc1ccccc1)NC(=O)[C@H](CC(C)C)NC(=O)[C@H](CCC(N)=O)NC(=O)[C@@H](NC(=O)[C@H](C)NC(=O)[C@H](CCC(=O)O)NC(=O)[C@H](CCC(=O)O)NC(=O)[C@H](CCC(=O)O)NC(=O)[C@H](CC(C)C)NC(=O)[C@H](CCC(N)=O)NC(=O)[C@H](CCCCN)NC(=O)[C@H](CO)NC(=O)[C@H](CC(C)C)NC(=O)[C@H](CC(=O)O)NC(=O)[C@H](CO)NC(=O)[C@@H](NC(=O)[C@H](Cc1ccccc1)NC(=O)[C@@H](NC(=O)CNC(=O)[C@H](CCC(=O)O)NC(=O)CNC(=O)[C@H](Cc1c[nH]cn1)NC(=O)CN)[C@@H](C)O)[C@@H](C)O)C(C)C)C(=O)N[C@@H](C)C(=O)N[C@@H](Cc1c[nH]c2ccccc12)C(=O)N[C@@H](CC(C)C)C(=O)N[C@H](C(=O)N[C@@H](CCCCN)C(N)=O)C(C)C [Ab P041] (H-GHGEGTFTSDLSKQLEEEAVQLFIAWLVK-NH2; N-terminus assumed) | – | 0.0325 | > 10 | > 10 |
| HGEGTFTSDLSKQCEEERVQLFIEWLKATGPSSGKPPPKPGC-NH2 (disulfide 14-42) [Ab P035] | – | 0.0203 | > 10 | > 10 |

From patent US20250115669A1, “FGFR1/KLB Targeting Agonistic Antigen-Binding Proteins and Conjugates Thereof with GLP-1R Agonistic Peptides” (SANOFI, priority 2020, published 2025)
